These results are taken from PMC5908134, “Saccharomyces cerevisiae as a platform for assessing sphingolipid lipid kinase inhibitors” (PLoS ONE, 2018).

Data set [1] has as its target T1, human SphK1 (Homo sapiens, UniProt Q9NYA1).
T1 construct: constructed by sub-cloning DNA encoding the indicated translational open reading frames into the pYES2-FLAG-URA expression vector; expressed in transfected cells; host or cells: Saccharomyces cerevisiae CBY169 or KYA1, plasmid pGAL-HsSPHK1
The data set is described as follows: yeast growth rescue assay, strain KYA1 (PDR5 deleted) expressing human SphK1. Format: cell-based. The source says:
(§1) The plasmids pGAL-HsSPHK1, pGAL-HsSPHK2, pGAL-MmSphk1, pGAL-MmSphk1L277M, pGAL-MmSphk2, pGAL-HsCERK and pGAL-SK2_MOD used in this study were constructed by sub-cloning DNA encoding the indicated translational open reading frames into the pYES2-FLAG-URA expression vector (provided by Dr. Cungui Mao). […] Excepting human and mouse SphK2, the DNA sequences are synthetic (from GeneWiz LLC (South Plainfield, NJ)) and were optimized for expression in S. cerevisiae.
(§2) Yeast harboring plasmids were selected and maintained on synthetic complete media lacking uracil (SC-URA) with 2% glucose as the fermentable carbon source. After overnight growth at 30°C in this media, the cultures were diluted 1:100 into SC-URA media supplemented with 2% galactose and various concentrations of test inhibitor. After a further 24–48 hours incubation at 30°C, the extent of growth was assessed by measuring absorbance at 600 nm. […] Tubes were incubated in a rotating drum while plates were agitated using a plate mixer. A600 for 96-well plate cultures was determined using a Molecular Devices SpectraMax M5 plate reader. Test compounds were dissolved in DMSO at 40–50 mM and diluted into water containing 0.1% fatty acid free bovine serum albumin. In all cases, the DMSO concentration in the assay was less than 2% (v/v).

The next data set concerns the target T2, mouse SphK2 (Mus musculus, UniProt Q9JIA7).
T2 sequence (Q9JIA7 1-617): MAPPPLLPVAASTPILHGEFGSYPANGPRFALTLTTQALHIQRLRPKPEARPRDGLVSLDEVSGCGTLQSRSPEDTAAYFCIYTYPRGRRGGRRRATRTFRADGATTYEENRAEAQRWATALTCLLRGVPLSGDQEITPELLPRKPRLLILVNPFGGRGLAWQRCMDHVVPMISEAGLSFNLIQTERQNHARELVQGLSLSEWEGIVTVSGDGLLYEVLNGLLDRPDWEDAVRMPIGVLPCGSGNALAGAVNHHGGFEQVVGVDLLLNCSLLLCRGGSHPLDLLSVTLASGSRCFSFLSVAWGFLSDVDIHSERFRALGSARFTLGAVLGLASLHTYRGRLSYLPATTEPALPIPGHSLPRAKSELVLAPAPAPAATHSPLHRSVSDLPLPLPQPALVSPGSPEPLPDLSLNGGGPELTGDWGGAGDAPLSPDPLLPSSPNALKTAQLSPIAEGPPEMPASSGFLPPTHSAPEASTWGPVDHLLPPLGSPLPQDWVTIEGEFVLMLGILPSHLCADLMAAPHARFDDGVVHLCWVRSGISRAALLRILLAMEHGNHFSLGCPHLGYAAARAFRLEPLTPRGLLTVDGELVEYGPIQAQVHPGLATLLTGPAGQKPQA
The data set is described as follows: yeast growth rescue assay, mouse SphK2 (CBY169 and KYA1 strains). Format: cell-based. Conditions: both the CBY169 and KYA1 strains.
Description: as §1, §2

Another data set relates to yeast strain CBY169. The data set is described as follows: toxicity for yeast (growth of strains without lipid kinase expression). The protocol: as §2
The salient limitations of the yeast assay are those of any cell-based assay. Namely, the assay reports EC50 values rather than Km, Vmax or kcat values of inhibitors, test compounds must not be markedly cytotoxic at the concentrations tested and compounds must accumulate to some extent in the yeast. Cytotoxicity is readily discerned by testing compounds for an effect on growth of strains without lipid kinase expression.

For data set [2], the target named is T3, human SphK2 (Homo sapiens, UniProt Q9NRA0).
T3 construct: full length (wild type hSK2); expressed in transfected cells; host or cells: Saccharomyces cerevisiae CBY169 or KYA1, plasmid pGAL-HsSPHK2
T3 sequence (Q9NRA0 1-618 isoform Q9NRA0-2): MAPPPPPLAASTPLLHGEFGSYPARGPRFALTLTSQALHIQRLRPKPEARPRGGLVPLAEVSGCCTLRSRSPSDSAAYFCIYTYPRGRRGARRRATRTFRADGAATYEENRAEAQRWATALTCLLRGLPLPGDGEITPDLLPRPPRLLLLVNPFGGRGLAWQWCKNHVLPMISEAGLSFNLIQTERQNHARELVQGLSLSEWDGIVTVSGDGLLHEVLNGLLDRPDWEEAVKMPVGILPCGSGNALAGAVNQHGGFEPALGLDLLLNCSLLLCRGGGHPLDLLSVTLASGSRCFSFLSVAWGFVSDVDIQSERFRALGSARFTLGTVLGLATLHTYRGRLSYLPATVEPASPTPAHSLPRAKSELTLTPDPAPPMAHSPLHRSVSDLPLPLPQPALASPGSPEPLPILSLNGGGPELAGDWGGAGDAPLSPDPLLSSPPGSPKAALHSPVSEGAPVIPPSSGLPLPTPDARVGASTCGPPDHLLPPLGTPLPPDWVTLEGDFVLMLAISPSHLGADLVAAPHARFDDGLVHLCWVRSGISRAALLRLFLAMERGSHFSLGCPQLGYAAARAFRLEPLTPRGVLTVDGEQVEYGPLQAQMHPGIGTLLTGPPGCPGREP
The data set is described as follows: yeast growth rescue assay, strain KYA1 (PDR5 deleted) expressing human SphK2. The class given is cell-based. Conditions: strain KYA1 expressing human SphK2. The source says:
The yeast strains used in this study include JS1256 (MATa his3Δ1 leu2Δ0 met15Δ0 ura3Δ0) and CBY169 (MATα leu2-3,112 ura3-52 his4 trp1 rme1 dpl1Δ::TRP1 lcb3Δ::LEU2 lcb4Δ::kanMX lcb5Δ::kanMX) (the latter provided by Kyle Cunningham). The CBY169 strain was modified further by replacement of the PDR5 gene with a selectable marker (confers resistance to clonat) to generate strain KYA1 (MATα leu2-3,112 ura3-52 his4 trp1 rme1 dpl1Δ::TRP1 lcb3Δ::LEU2 lcb4Δ::kanMX lcb5Δ::kanMX pdr5Δ::natMX).
The plasmids pGAL-HsSPHK1, pGAL-HsSPHK2, pGAL-MmSphk1, pGAL-MmSphk1L277M, pGAL-MmSphk2, pGAL-HsCERK and pGAL-SK2_MOD used in this study were constructed by sub-cloning DNA encoding the indicated translational open reading frames into the pYES2-FLAG-URA expression vector (provided by Dr. Cungui Mao). The encoded proteins all have an amino terminal FLAG epitope tag ([…]) and their expression is under the control of the GAL1,10 promoter. Excepting human and mouse SphK2, the DNA sequences are synthetic (from GeneWiz LLC (South Plainfield, NJ)) and were optimized for expression in S. cerevisiae.

Data set [3] concerns the target T3, human SphK2. The data set is described as follows: yeast growth rescue assay, strain CBY169 expressing human SphK2. The class given is cell-based.
Description: as §1

The target of data set [4] is T1, human SphK1. Nature of the data set: yeast growth rescue assay, strain CBY169 expressing human SphK1. The class given is cell-based. Conditions: strain CBY169 expressing human SphK1.
Description: as §1, §2

Entries after “also recorded” stand apart in the source; their conditions may differ.

T1 sequence (Q9NYA1 whole entry): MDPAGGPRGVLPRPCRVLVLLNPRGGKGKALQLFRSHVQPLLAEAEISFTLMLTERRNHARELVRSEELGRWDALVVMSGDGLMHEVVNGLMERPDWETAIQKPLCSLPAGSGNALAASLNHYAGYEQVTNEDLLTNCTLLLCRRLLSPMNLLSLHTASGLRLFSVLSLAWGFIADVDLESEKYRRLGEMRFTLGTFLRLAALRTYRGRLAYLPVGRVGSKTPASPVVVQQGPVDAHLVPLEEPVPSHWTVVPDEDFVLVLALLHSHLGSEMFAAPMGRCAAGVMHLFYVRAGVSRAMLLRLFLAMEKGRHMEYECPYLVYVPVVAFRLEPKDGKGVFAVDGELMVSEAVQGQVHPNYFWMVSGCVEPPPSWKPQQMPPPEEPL

Consider `O=C(NCc1ccncc1)C12CC3CC(C1)CC(c1ccc(Cl)cc1)(C3)C2` [ABC294640], for which the rescue of growth result is reported as “failed to rescue growth” on human SphK1 [1], “failed to rescue growth; also recorded: failure to detect activity” on human SphK2 [2], “failed to rescue growth” on human SphK2 [2] (concentrations up to 100 μM) and “failed to rescue growth; also recorded: failure to detect activity” at human SphK2 [3]. Also, the “activity (rescue of growth)” value on mouse SphK2 is “failure to detect activity”. Further, in the data set with yeast strain CBY169, the cytotoxicity for yeast entry is recorded as “not cytotoxic”. For the same compound, on human SphK1 [4], the “rescue of growth in galactose media” value is given as “failed to rescue growth”.
